In PubChem BioAssay AID1963958 (Molecular Pharmacology Branch, DTP, NCI, 2024):

Test system: MDA-MB-231 multicell spheroids, viability
Test: Anticancer human tumor MDA-MB-231 cell line growth inhibition [PI3K];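 further: spheroids exposed to agents for seven days before reading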;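 on viability, T/C: percent of vehicle control luminescence with DMSO treated spheroids as 100%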
Details: for viability, T/C: stronger effect = lower value
From the text: Combinatorial screen of targeted agents with the PI3K inhibitors inavolisib, alpelisib, duvelisib, and copanlisib in multi-cell type tumor spheroids
A high-throughput screen of multi-cell type tumor spheroids was designed to identify active combinations of targeted small molecules and PI3K pathway inhibitors. Complex spheroids include a stromal component modeled by human endothelial cells (HUVEC) and fibroblasts modeled by human mesenchymal stem cells (MSCs). The concentration ranges selected for each drug and investigational agent were based upon clinically achievable concentrations if the clinical Cmax of the agent was known.
Compounds. The drugs and investigational agents: inavolisib (NSC800729), alpelisib (NSC765974), duvelisib (NSC772469), copanlisib (NSC816437), ipatasertib (NSC767898), afuresertib (NSC778305), talazoparib (NSC767125), sapanisertib (NSC764658), selumetinib (NSC741078), tovorafenib (DAY101, NSC766906), vemurafenib (NSC761431), ravoxertinib (NSC781343), sotorasib (NSC818433), MRTX1133 (NSC 836407), abemaciclib (NSC 768073), palbociclib (NSC758247), venetoclax (NSC 766270), SY5609 (NSC837396), enzalutamide (NSC755605), and darolutamide (NSC825331), were obtained from the National Cancer Institute (NCI) Developmental Therapeutics Program Chemical Repository. The FDA-approved anticancer drug set is available from the NCI Developmental Therapeutics Program. […] The stock solutions were prepared in dimethyl sulfoxide (DMSO, Sigma-Aldrich, St. Louis, MO, cat. D2650) at 800-fold the tested concentration and stored at -70 degrees C prior to their use. All drugs and investigational agents were tested over a range starting from a high concentration at or near the clinical Cmax and decreasing in half-log increments. If the clinical Cmax for an agent had not been determined, the highest concentration tested was 10 microM.
Cell Culture. All cells were maintained in an incubator at 37 degrees C and 5% CO2 with 95% humidity. The PDC lines were cultured according to standard operating procedures established by the NCI PDMR (https://pdmr.cancer.gov/sops/default.htm). All PDCs were thawed and cultured in Matrigel-coated flasks prepared with a working solution of 1X Ham's F-12 nutrient mix, without supplementation (Invitrogen, Waltham, MA, cat. 11765054), 100 U/mL penicillin-streptomycin (Invitrogen, cat. 15140122), and 2.5% Matrigel (Corning Inc., Corning, NY, cat. 354248) for the first three passages. The 354836-022-R-J1-PDC, 475296-252-R-J1-PDC, and 997726-040-R-J2-PDC lines were cultured in 6A media, which includes advanced DMEM/F-12 (Thermo Fisher Scientific, cat. 12634028), 10 mM HEPES (Thermo Fisher Scientific, cat. 15630080), 1X GlutaMAX supplement (Thermo Fisher Scientific, cat. 35050061), 0.1 mg/mL primocin (InvivoGen, San Diego, CA, cat. ant-pm-2), 10% defined fetal bovine serum, heat inactivated (HyClone Laboratories Inc., Logan, UT, cat. SH30070.03HI), 50% L-WRN conditioned media (ATCC, cat. CRL-3276), 1.25 mM N-Acetyl-L-cysteine (Sigma-Aldrich, cat. A9165), 10 mM nicotinamide (Sigma-Aldrich, cat. N0636), 1X B-27 supplement (Thermo Fisher Scientific, cat. 17504044), 1X N-2 supplement (Thermo Fisher Scientific, cat. 17502048), and 10 microM Y-27632 dihydrochloride (Tocris Bioscience, Bristol, United Kingdom, cat. 1254). The 624824-186-R-J2-PDC line was cultured in 6C/Colon 1B media, which includes all 6A media components plus 50 ng/mL human EGF recombinant protein (Thermo Fisher Scientific, cat. PHG0311). […]

SMILES: C#Cc1c(F)ccc2cc(O)cc(-c3ncc4c(N5CC6CCC(C5)N6)nc(OCC56CCCN5CC(F)C6)nc4c3F)c12 (stereo not given)
- viability, T/C (compound 0.0316 µM): 110% [middle of 4 runs]
- viability, T/C (compound 0.1 µM): 104% [middle of 4 runs]
- viability, T/C (compound 0.316 µM): 100% [middle of 4 runs]
- viability, T/C (compound 1 µM): 98.5% [middle of 4 runs]
- viability, T/C (compound 10 µM): 59.5% [middle of 4 runs]
- IC50 (curve of compound): > 10 µM

SMILES: Cn1ncc(Cl)c1-c1cc(C(=O)NC(CN)Cc2cccc(F)c2)sc1Cl (stereo not given)
- viability, T/C (compound 0.0316 µM): 111% [middle of 4 runs]
- viability, T/C (compound 0.1 µM): 99.8% [middle of 4 runs]
- viability, T/C (compound 0.316 µM): 95.8% [middle of 4 runs]
- viability, T/C (compound 1 µM): 77.2% [middle of 4 runs]
- viability, T/C (compound 3.16 µM): 52.5% [middle of 4 runs]
- viability, T/C (compound 10 µM): 28.8% [middle of 4 runs]
- IC50 (curve of compound): 3.47 µM [middle of 4 runs]

SMILES: CNC(=O)c1ccc(N2C(=S)N(c3ccc(C#N)c(C(F)(F)F)c3)C(=O)C2(C)C)cc1F + CC(Nc1ccc2c(c1)OCCn1cc(N3C(=O)OCC3C(F)F)nc1-2)C(N)=O
- IC50 (curve of first compound, second compound 0.00316 µM): > 10 µM
- IC50 (curve of first compound, second compound 0.01 µM): > 10 µM
- IC50 (curve of first compound, second compound 0.0316 µM): > 10 µM
- IC50 (curve of first compound, second compound 0.1 µM): > 10 µM
- IC50 (curve of first compound, second compound 0.316 µM): > 10 µM
- IC50 (curve of first compound, second compound 1 µM): > 10 µM
- viability, T/C (second compound 0.00316 µM, first compound 0.0316 µM): 104%
- viability, T/C (second compound 0.00316 µM, first compound 0.1 µM): 97.8%
- viability, T/C (second compound 0.00316 µM, first compound 0.316 µM): 103%
- viability, T/C (second compound 0.00316 µM, first compound 1 µM): 98%
- viability, T/C (second compound 0.00316 µM, first compound 3.16 µM): 103%
- viability, T/C (second compound 0.00316 µM, first compound 10 µM): 76.6%
- viability, T/C (second compound 0.01 µM, first compound 0.0316 µM): 87.4%
- viability, T/C (second compound 0.01 µM, first compound 0.1 µM): 98%
- viability, T/C (second compound 0.01 µM, first compound 0.316 µM): 86.6%
- viability, T/C (second compound 0.01 µM, first compound 1 µM): 96%
- viability, T/C (second compound 0.01 µM, first compound 3.16 µM): 79.5%
- viability, T/C (second compound 0.01 µM, first compound 10 µM): 73%
- viability, T/C (second compound 0.0316 µM, first compound 0.0316 µM): 75.6%
- viability, T/C (second compound 0.0316 µM, first compound 0.1 µM): 82.5%
- viability, T/C (second compound 0.0316 µM, first compound 0.316 µM): 75%
- viability, T/C (second compound 0.0316 µM, first compound 1 µM): 77.5%
- viability, T/C (second compound 0.0316 µM, first compound 3.16 µM): 77.2%
- viability, T/C (second compound 0.0316 µM, first compound 10 µM): 60.8%
- viability, T/C (second compound 0.1 µM, first compound 0.0316 µM): 72.8%
- viability, T/C (second compound 0.1 µM, first compound 0.1 µM): 71.8%
- viability, T/C (second compound 0.1 µM, first compound 0.316 µM): 70.7%
- viability, T/C (second compound 0.1 µM, first compound 1 µM): 67.2%
- viability, T/C (second compound 0.1 µM, first compound 3.16 µM): 64%
- viability, T/C (second compound 0.1 µM, first compound 10 µM): 52.5%
- viability, T/C (second compound 0.316 µM, first compound 0.0316 µM): 65.1%
- viability, T/C (second compound 0.316 µM, first compound 0.1 µM): 66.2%
- viability, T/C (second compound 0.316 µM, first compound 0.316 µM): 62.2%
- viability, T/C (second compound 0.316 µM, first compound 1 µM): 66.7%
- viability, T/C (second compound 0.316 µM, first compound 3.16 µM): 64.7%
- viability, T/C (second compound 0.316 µM, first compound 10 µM): 52.2%
- viability, T/C (second compound 1 µM, first compound 0.0316 µM): 55.7%
- viability, T/C (second compound 1 µM, first compound 0.1 µM): 62.4%
- viability, T/C (second compound 1 µM, first compound 0.316 µM): 62.3%
- viability, T/C (second compound 1 µM, first compound 1 µM): 60.4%
- viability, T/C (second compound 1 µM, first compound 3.16 µM): 58.5%
- viability, T/C (second compound 1 µM, first compound 10 µM): 47.4%
